Columns and labels:
[1] = tested on: TRZAWR (Wheat, Winter, cv Riband); test: Preemergence herbicidal evaluation; assay type: in vivo, Triticum aestivum; details: rated 4-5 weeks after treatment
Method in brief: (§1)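 Visual 0-9 rating vs control (stand, vigor, malformation, size, chlorosis, overall appearance), scored 4-5 wk after spraying. Seeded soil cups were treated preemergence with compound in aqueous acetone, ~0.0156-0.500 kg/ha equivalent.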

[2] = tested on: ECHORC (Watergrass (Calif.)); test: Preemergence weed control under flooded paddy conditions; assay type: in vivo, Echinochloa oryzoides; details: rated 3-4 weeks after treatment
Method in brief: (§2)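 Herbicidal effect is scored visually on a 0-9 scale against an untreated control, three to four weeks after compounds are pipetted into the flood water (1.5 to 3 cm deep) over seeds planted in silt loam at 0.5 cm depth. Rates: about 0.0313 to 0.500 kg/ha.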

SETVI (Foxtail, Green) [3] = test: Postemergence herbicidal evaluation; assay type: in vivo, Setaria viridis; details: postemergence
Method in brief: (§3)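 Herbicidal effect was judged by eye on a 0–9 scale covering stand, vigor, deformity, size and chlorosis, compared with controls, four to five weeks after seedlings about two weeks old were sprayed (40 psi, ~0.0156–0.500 kg/ha).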

CYPSE (Flatsedge) [4] = test: Postemergence weed control under flooded paddy conditions; assay type: in vivo, Cyperus serotinus; details: postemergence weeds, 3-4 weeks after treatment
Method in brief: (§4)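 Injury ratings (0–9 scale covering stand, vigor, malformation, size, chlorosis and overall appearance versus control) were made three to four weeks after treatment. Test material, about 0.0313 to 0.500 kg/ha a.i. in 50/50 v/v aqueous/acetone, was added to flood water 1.5 to 3 cm deep over 3 to 5 cm weeds and 1.5 to 2.5 leaf rice.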

[5] = tested on: ECHORC (Watergrass (Calif.)); test: as above; assay type: in vivo, Echinochloa oryzoides; details: postemergence weeds, 3-4 weeks after treatment
Method in brief: as §4

ECHCG (Barnyardgrass) = test: Preemergence herbicidal evaluation; assay type: in vivo, Echinochloa crus-galli; details: rated 4-5 weeks after treatment
Method in brief: as §1

ZEAMX (Corn, Field) [6] = test: Postemergence herbicidal evaluation; assay type: in vivo, Zea mays; details: postemergence
Method in brief: as §3

SETVI (Foxtail, Green) [7] = test: Preemergence herbicidal evaluation; assay type: in vivo, Setaria viridis; details: rated 4-5 weeks after treatment
Method in brief: as §1

CYPIR (Rice Flatsedge) [8] = test: Postemergence weed control under flooded paddy conditions; assay type: in vivo, Cyperus iria; details: postemergence weeds, 3-4 weeks after treatment
Method in brief: as §4

[9] = tested on: SAGPY (Arrowhead (Pygmaea)); test: as above; assay type: in vivo, Sagittaria pygmaea; details: postemergence weeds, 3-4 weeks after treatment
Method in brief: as §4

ORYSAT (Rice, Tebonnet) = test: Postemergence herbicidal evaluation; assay type: in vivo, Oryza sativa, (L.) Tebonnet; details: postemergence
Method in brief: as §3

CYPSE (Flatsedge) [10] = test: Preemergence weed control under flooded paddy conditions; assay type: in vivo, Cyperus serotinus; details: rated 3-4 weeks after treatment
Method in brief: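 Values are visual 0-9 scores against a control for a preemergence application into paddy flood water at about 0.0313 to 0.500 kg/ha. Greenhouse duration was three to four weeks.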

CYPIR (Rice Flatsedge) [11] = test: as above; assay type: in vivo, Cyperus iria; details: rated 3-4 weeks after treatment
Method in brief: as §2

ZEAMX (Corn, Field) [12] = test: Preemergence herbicidal evaluation; assay type: in vivo, Zea mays; details: rated 4-5 weeks after treatment
Method in brief: as §1

CN(C)N1C(=O)CSC1=Nc1cc(-n2c(=O)cc(C(F)(F)F)n(C)c2=O)c(F)cc1Cl [Compound 23, 3-{4-Chloro-5-{[3-(dimethylamino)-4-oxo-2-thiazolidinylidine]amino}-2-fluorophenyl}-1-methyl-6-(trifluoromethyl)-2,4(1H,3H)-pyrimidinedione]
0.0: TRZAWR preemergence herbicidal rating ([1]; rate 0.0156 kg/ha) | TRZAWR preemergence herbicidal rating ([1]; rate 0.0313 kg/ha) | Herbicidal rating CYPSE (CYPSE (Flatsedge) [4]; rate 0.1160 kg/ha) | Herbicidal rating CYPSE (CYPSE (Flatsedge) [4]; rate 0.2310 kg/ha) | Herbicidal rating CYPSE (CYPSE (Flatsedge) [4]; rate 0.4630 kg/ha) | ECHCG preemergence herbicidal rating (ECHCG (Barnyardgrass); rate 0.0156 kg/ha) | Herbicidal rating CYPIR (CYPIR (Rice Flatsedge) [8]; rate 0.1160 kg/ha) | Herbicidal rating CYPIR (CYPIR (Rice Flatsedge) [8]; rate 0.2310 kg/ha) | Herbicidal rating CYPIR (CYPIR (Rice Flatsedge) [8]; rate 0.4630 kg/ha) | Herbicidal rating SAGPY ([9]; rate 0.1160 kg/ha) | Herbicidal rating SAGPY ([9]; rate 0.2310 kg/ha) | Herbicidal rating CYPSE (CYPSE (Flatsedge) [10]; 0.1160 kg/ha) | Herbicidal rating CYPSE (CYPSE (Flatsedge) [10]; 0.2310 kg/ha) | Herbicidal rating CYPSE (CYPSE (Flatsedge) [10]; 0.4630 kg/ha) | Herbicidal rating CYPIR (CYPIR (Rice Flatsedge) [11]; 0.1160 kg/ha) | Herbicidal rating CYPIR (CYPIR (Rice Flatsedge) [11]; 0.2310 kg/ha) | Herbicidal rating CYPIR (CYPIR (Rice Flatsedge) [11]; 0.4630 kg/ha) | ZEAMX preemergence herbicidal rating (ZEAMX (Corn, Field) [12]; rate 0.0156 kg/ha)
4.5: ORYSAT herbicidal rating (ORYSAT (Rice, Tebonnet); rate 0.0630 kg/ha)
6.0: ECHCG preemergence herbicidal rating (ECHCG (Barnyardgrass); rate 0.2500 kg/ha) | SETVI preemergence herbicidal rating (SETVI (Foxtail, Green) [7]; rate 0.2500 kg/ha)
1.0: TRZAWR preemergence herbicidal rating ([1]; rate 0.0625 kg/ha) | ECHCG preemergence herbicidal rating (ECHCG (Barnyardgrass); rate 0.0313 kg/ha) | SETVI preemergence herbicidal rating (SETVI (Foxtail, Green) [7]; rate 0.0156 kg/ha) | SETVI preemergence herbicidal rating (SETVI (Foxtail, Green) [7]; rate 0.0313 kg/ha) | ZEAMX preemergence herbicidal rating (ZEAMX (Corn, Field) [12]; rate 0.0313 kg/ha)
3.5: ZEAMX herbicidal rating (ZEAMX (Corn, Field) [6]; rate 0.0315 kg/ha)
7.0: TRZAWR preemergence herbicidal rating ([1]; rate 0.2500 kg/ha) | ZEAMX preemergence herbicidal rating (ZEAMX (Corn, Field) [12]; rate 0.2500 kg/ha)
3.0: ZEAMX herbicidal rating (ZEAMX (Corn, Field) [6]; rate 0.0158 kg/ha) | Herbicidal rating SAGPY ([9]; rate 0.4630 kg/ha)
2.5: ORYSAT herbicidal rating (ORYSAT (Rice, Tebonnet); rate 0.0315 kg/ha)
4.0: Herbicidal rating ECHORC ([2]; 0.1160 kg/ha) | Herbicidal rating ECHORC ([2]; 0.2310 kg/ha) | Herbicidal rating ECHORC ([2]; 0.4630 kg/ha) | SETVI herbicidal rating (SETVI (Foxtail, Green) [3]; rate 0.0315 kg/ha) | SETVI herbicidal rating (SETVI (Foxtail, Green) [3]; rate 0.0630 kg/ha) | Herbicidal rating ECHORC ([5]; rate 0.1160 kg/ha) | Herbicidal rating ECHORC ([5]; rate 0.2310 kg/ha) | Herbicidal rating ECHORC ([5]; rate 0.4630 kg/ha) | ECHCG preemergence herbicidal rating (ECHCG (Barnyardgrass); rate 0.1250 kg/ha)
2.0: SETVI herbicidal rating (SETVI (Foxtail, Green) [3]; rate 0.0158 kg/ha) | ECHCG preemergence herbicidal rating (ECHCG (Barnyardgrass); rate 0.0625 kg/ha) | ORYSAT herbicidal rating (ORYSAT (Rice, Tebonnet); rate 0.0158 kg/ha) | ZEAMX preemergence herbicidal rating (ZEAMX (Corn, Field) [12]; rate 0.0625 kg/ha)
5.0: TRZAWR preemergence herbicidal rating ([1]; rate 0.1250 kg/ha) | ZEAMX herbicidal rating (ZEAMX (Corn, Field) [6]; rate 0.0630 kg/ha) | SETVI preemergence herbicidal rating (SETVI (Foxtail, Green) [7]; rate 0.0625 kg/ha) | SETVI preemergence herbicidal rating (SETVI (Foxtail, Green) [7]; rate 0.1250 kg/ha) | ZEAMX preemergence herbicidal rating (ZEAMX (Corn, Field) [12]; rate 0.1250 kg/ha)
